# Data from patent publication US10660898B2, “Benzimidazole derivatives as PI3 kinase inhibitors” (GLAXOSMITHKLINE LLC, priority 2010, dated 2020).
# Legend:
# Test in all cases: Anchorage independent soft agar tumor growth assay
# PC-3 = format: cell-based, human; conditions: PC-3 prostate carcinoma, PTEN Loss, No protein
# Experimental: Cellular Assays—Cell Growth Inhibition Assay in PTEN Wild-Type or PTEN Deficient Tumor Cell Lines Twenty-two Phosphatase and Tensin Homolog (PTEN) wild-type or PTEN deficient tumor cell lines were cultured generally according to instructions supplied by cell culture supplier American Type Culture Collection, Manassas, Va., with 10% fetal bovine serum at 5% CO2 and 37° C. Cells were seeded into either a T-75 or a T-175 flask 3-4 days prior to 96-well assay plating such that the flasks were approximately 70-80% confluent of the time of harvest. Cells were harvested using 0.25% trypsin-EDTA (Invitrogen #25200056). Trypan Blue exclusion staining was used to determine cell number. Viable cells were plated in clear, flat bottom 96-well plates (BD #353075) under anchorage independent conditions at 2,000-10,000 cells per well depending on the cell line. To generate anchorage independent growth conditions, a 5% agar stock solution in water was made and autoclaved to melt and sterilize. […] The next day one plate of cells was processed at the time of compound addition to quantify the starting number of cells (T=0 or T0). […] Following the 6-day incubation, 20 μl of Alamar Blue (Invitrogen # DAL1100) was added to the cells, incubated at 5% CO2 and 37° C. for 6 hours and the plates read on a Spectramax (Gemini EM) at 530 nm (excitation) and 590 nm (emission) with the auto cut-off disabled. […]
# MDA-MB-468 = format: cell-based; conditions: MDA-MB-468 breast carcinoma, PTEN p.?, L70Fs*7, No protein
# Experimental: (§1) Cellular Assays—Cell Growth Inhibition Assay in PTEN Wild-Type or PTEN Deficient Tumor Cell Lines Twenty-two Phosphatase and Tensin Homolog (PTEN) wild-type or PTEN deficient tumor cell lines were cultured generally according to instructions supplied by cell culture supplier American Type Culture Collection, Manassas, Va., with 10% fetal bovine serum at 5% CO2 and 37° C. Cells were seeded into either a T-75 or a T-175 flask 3-4 days prior to 96-well assay plating such that the flasks were approximately 70-80% confluent of the time of harvest. Cells were harvested using 0.25% trypsin-EDTA (Invitrogen #25200056). Trypan Blue exclusion staining was used to determine cell number. Viable cells were plated in clear, flat bottom 96-well plates (BD #353075) under anchorage independent conditions at 2,000-10,000 cells per well depending on the cell line. To generate anchorage independent growth conditions, a 5% agar stock solution in water was made and autoclaved to melt and sterilize. From the 5% agar solution, a 0.6% agar/media+10% fetal bovine serum (FBS) solution was made to generate a bottom agar layer in the plates to prevent cell attachment. Seventy five microliters per well of the 0.6% agar-media solution was added to the plates. After solidification, a cell solution of 266,870 to 1, 334,022 cells (depending on the cell line) in 10 ml of 0.3% agar/media+10% FBS was made and 75 μl of the cell/media/agar suspension was added to the plates. After the cell layer solidified, 50 μl of media+10% FBS was added to the top of the cells. A 0.3% Brij 35 (Sigma B4184) solution in media+10% FBS was added to column 12 as a background subtraction control. The cells were incubated overnight at 5% CO2 and 37° C. The next day one plate of cells was processed at the time of compound addition to quantify the starting number of cells (T=0 or T0). […] Three hundred microliters of media was added to the compound dilutions. Ten microliters per well of the serial dilutions was added to the cells and the plates incubated for 6 days at 5% CO2 and 37° C. […] Following the 6-day incubation, 20 μl of Alamar Blue (Invitrogen # DAL1100) was added to the cells, incubated at 5% CO2 and 37° C. for 6 hours and the plates read on a Spectramax (Gemini EM) at 530 nm (excitation) and 590 nm (emission) with the auto cut-off disabled. For analysis of cell growth inhibition dose response curves, the data was plotted as the percent of the DMSO-treated control samples (DMSO samples set to 100%). […] Values from wells containing 0.3% Brij 35 (under anchorage independent conditions) were subtracted from all samples for background correction.
# SKOV-3 = format: cell-based; conditions: SKOV-3 ovary adenocarcinoma, PTEN Wild-type
# Experimental: as §1
# HCC19377 = format: cell-based; conditions: HCC19377 breast carcinoma, PTEN Loss, No protein
# Experimental: as §1
# UACC-62 = format: cell-based; conditions: UACC-62 skin melanoma, PTEN p.P248fs*5, No protein
# Experimental: as §1
# HCC70 = format: cell-based; conditions: HCC70 breast carcinoma, PTEN p.F90fs*9, No protein
# Experimental: as §1
# SW1783 = format: cell-based; conditions: SW1783 CNS glioblastoma, PTEN p.R233*, No protein
# Experimental: as §1
# Colo205 = format: cell-based; conditions: Colo205 colon carcinoma, PTEN Wild-type
# Experimental: as §1
# U251 = format: cell-based; conditions: U251 CNS glioblastoma, PTEN p.E242fs*15, No protein
# Experimental: as §1
# HCC1954 = format: cell-based; conditions: HCC1954 breast carcinoma, PTEN Wild-type, Protein
# Experimental: as §1
# UM-UC-3 = format: cell-based; conditions: UM-UC-3 bladder transitional, PTEN Loss, No protein
# Experimental: as §1
# SW1088 = format: cell-based; conditions: SW1088 CNS glioblastoma, PTEN Loss, No protein
# Experimental: as §1
# CHL-1 = format: cell-based; conditions: CHL-1 skin melanoma, PTEN Wild-type, Protein
# Experimental: as §1
# H4 = format: cell-based; conditions: H4 CNS glioblastoma, PTEN Loss, No protein
# Experimental: as §1
# C32 = format: cell-based; conditions: C32 skin melanoma, PTEN p.55fs*, No protein
# Experimental: as §1
# [1] = Homo sapiens, 144 h, 6-day incubation, Alamar Blue, read-out: Compound EC50 (nM) ± StDev
# [2] = percent of DMSO-treated control
# [3] = 144 h, 6-day incubation, Alamar Blue, read-out: Compound EC50 (nM) ± StDev
compound,measurement,setting,value
"Cc1c(Cn2c(C)nc3c(C(=O)O)cc(N4CCOCC4)cc32)cccc1C(F)(F)F [Example 31, 2-methyl-1-{[2-methyl-3-(trifluoromethyl)phenol]methyl}-6-(4-morpholinyl)-1H-benzimidazole-4-carboxylic acid]",EC50,PC-3; [1],27 ± 12 nM
same,Compound Ymin ± StDev,PC-3; [2],82 ± 13
same,EC50,MDA-MB-468; [1],89 ± 55 nM
same,Compound Ymin ± StDev,MDA-MB-468; [2],44 ± 6
same,EC50,"SKOV-3; Homo sapiens, SK-OV-3, 144 h, 6-day incubation, Alamar Blue, read-out: Compound EC50 (nM) ± StDev",> 30700 nM
same,Compound Ymin ± StDev,SKOV-3; [2],>80
same,EC50,HCC19377; [3],24 ± 8 nM
same,Compound Ymin ± StDev,HCC19377; [2],67 ± 8
same,EC50,UACC-62; [1],23 ± 27 nM
same,Compound Ymin ± StDev,UACC-62; [2],76 ± 18
same,Compound Ymin ± StDev,HCC70; [2],27 ± 8
same,EC50,HCC70; [1],53 ± 21 nM
same,EC50,SW1783; [1],10 ± 3 nM
same,Compound Ymin ± StDev,SW1783; [2],69 ± 4
same,Compound Ymin ± StDev,Colo205; [2],>80
same,EC50,"Colo205; Homo sapiens, COLO 205, 144 h, 6-day incubation, Alamar Blue, read-out: Compound EC50 (nM) ± StDev",> 30700 nM
same,EC50,"U251; Homo sapiens, U-251, 144 h, 6-day incubation, Alamar Blue, read-out: Compound EC50 (nM) ± StDev",19000 ± 8620 nM
same,Compound Ymin ± StDev,U251; [2],80 ± 17
same,Compound Ymin ± StDev,HCC1954; [2],>80
same,EC50,HCC1954; [1],> 30700 nM
same,EC50,"UM-UC-3; Homo sapiens, UMUC3, 144 h, 6-day incubation, Alamar Blue, read-out: Compound EC50 (nM) ± StDev",10 ± 8 nM
same,Compound Ymin ± StDev,UM-UC-3; [2],83 ± 29
same,EC50,SW1088; [1],12 ± 6 nM
same,Compound Ymin ± StDev,SW1088; [2],36 ± 8
same,Compound Ymin ± StDev,CHL-1; [2],82 ± 2
same,EC50,CHL-1; [1],14 ± 6 nM
same,EC50,H4; [3],12 ± 8 nM
same,Compound Ymin ± StDev,H4; [2],55 ± 18
same,Compound Ymin ± StDev,C32; [2],20 ± 14
same,EC50,C32; [1],8 ± 2 nM
